Laboratory results from PMC8148468, “Shikimic acid protects skin cells from UV-induced senescence through activation of the NAD+-dependent deacetylase SIRT1” (Aging (Albany NY), 2021).

Columns and labels:
spliced-XBP1 = test: Spliced XBP1 mRNA (qPCR); type: cell-based, human; settings: UVB-irradiated cells, SA treatment
Experimental: Figure 5 (A) Western-blot of BiP proteins levels in UVB or non UVB irradiated cells treated with SA at the indicated concentrations in presence or absence of EX-527 1 μM. (B) Quantification of n=3 experiments as (A). The levels of BiP are normalized by the loading control (histone H3) and represented related to the conditions in UVB irradiated cells in absence of SA and EX-527. Student T-test, *p<0.05. (C) Percentage of SA-β-Gal in assays performed as in Figure 3C. (D) Levels of spliced and unspliced XBP1 mRNA monitored by qPCR analysis in cells treated in the indicated conditions in presence or absence of SA and/or EX-527. The levels were normalized by internal controls and represented in each case related to the conditions in UVB irradiated cells in absence of SA and EX-527. […]
(§1) RNA was extracted from cell pellets using the Total RNA Purification Kit (Norgen, Canada), according to the manufacturer’s protocol. Extracted RNA was quantified using a NanoDrop® ND-1000 UV-Vis Spectrophotometer (Thermo Fisher Scientific, USA) and 300 ng of RNA were retrotranscribed to cDNA using the PrimeScriptTM RT reagent kit (Takara Bio Inc., Japan). cDNA was diluted 1/10 in ultrapure water and qPCR mix was prepared by adding cDNA (12 ng), SYBR green supermix (Bio Rad, USA), forward and reverse primers (0.2μM). […] The results were analyzed with Bio-Rad CFX Manager software. […]

[1] = system: UVB-irradiated human dermal fibroblasts (HDFs); test: UVB-induced senescence assay: SA-β-Gal staining; type: cell-based; settings: UVB-irradiated HDF
Experimental: In the second approach, we established a method for inducing senescence in these cells with 2 cycles of UVB irradiation 72h apart (Figure 2A). The use of UVA to induce senescence was discarded due to its considerably longer time requirement, being unsuitable to screen 30 compounds within a reasonable period. Cells were treated with these compounds throughout the duration of the assay and cellular senescence was monitored with two markers: accumulation of SA-β-galactosidase (SA-β-Gal) activity, and the decrease in expression of HAS2 (hyaluronic acid synthase 2), a previously reported marker of skin senescence.
Figure 2 (A) Schematic representation of the protocol for senescence induction using UVB irradiation. Cells were treated -/+ the compounds from day 1 to 7 after seeding, irradiated with UVB on days 2 and 5 and harvested for analysis on day 7. […] (C) Phase-contrast (left column) and bright field (right column) microscope images of SA-β-Gal staining showing non-irradiated cells, UVB-irradiated cells non-treated and treated with Gallic acid or Shikimic acid at the indicated concentrations. (D) Percentage of SA-β-Gal positive cells and (E) Relative HAS2 mRNA levels in non-irradiated cells, UVB-irradiated cells and UVB-irradiated cells treated with Gallic acid or Shikimic acid at the indicated concentrations. Student T-test, *p<0.05, **p<0.01, ***p<0.001.
The protocol for senescence induction using UVB irradiation is described in the Supplementary Methods. SA-β-Gal staining, WST-1, sulforhodamine B (SRB) and trypan blue assays were performed as previously described. For the siRNA experiments, the protocol for senescence induction using UVB irradiation was the same as in the Supplementary Methods. Specific siRNA (Horizon discovery, UK) for SIRT1, SIRT2, SIRT6, BiP or scramble siRNA were incubated for 6 hours before each irradiation step.
Senescence induction by UVB irradiation For the non-irradiation control conditions, HDF were […]
After 24h, culture medium was removed and well plates. After 24h, culture medium was removed replaced by fresh cell culture medium containing the and replaced with fresh cell culture medium containing compounds at different concentrations. After 24h, the compounds at different concentrations. […]
cell culture medium was removed, and cells were cells/plate in fresh cell culture medium containing the irradiated at 25 mJ/cm2 of UVB light (312 nm) in a Bio- compound in 6-well plates. After 3 days, cells were […]
amount of PBS. PBS was then removed and fresh cell fresh cell culture medium containing the compound in culture medium with the compound was added to each 6-well plates. After 2 days, cells were processed well. After 3 days, cells were irradiated again under the according to the qPCR, β-Gal staining, apoptosis, cell same conditions. After 2 days, cells were processed cycle or immunofluorescence protocols. according to the qPCR, β-Gal staining, apoptosis, cell cycle or immunofluorescence protocols.

IL-6 = IL-6 mRNA levels (qPCR); type: cell-based, human; settings: UVB-irradiated HDF, SA 10, 25, 50 mM -/+ EX-527 1 μM
Experimental: Figure 3 (A) Schematic representation of the protocol for senescence induction using UVB irradiation and study of EX527 involvement in the effect of Shikimic acid. Cells were treated with or without shikimic acid -/+ EX-527 from day 1 until day 7 after seeding, irradiated with UVB on days 2 and 5 and harvested for analysis on day 7. (B) Phase-contrast (left column) and bright field (right column) microscope images of β-Gal staining showing non-irradiated cells non-treated and treated with shikimic acid (10, 25 and 50 mM), UVB-irradiated cells non-treated and treated with shikimic acid (10, 25 and 50 mM), shikimic acid (10, 25 and 50 mM) + EX-527 1 μM and EX-527 1 μM. […] SIRT1 activity was then evaluated by analyzing acetylation of H3K9, H4K16 and p53K382 by Western blot. […]
as §1

## O=C(O)C1=C[C@@H](O)[C@@H](O)[C@H](O)C1 [Shikimic acid]
spliced-XBP1
  spliced XBP1 mRNA levels: induced a decrease in spliced-XBP1
[1]
  SA-β-Gal accumulation/staining: significant decrease in SA-β-Gal accumulation
[1]; SA-β-Gal and HAS2 markers
  prevention of UV-induced cellular senescence: prevented the development of senescence
IL-6
  IL-6 mRNA levels: induced a reduction in the levels of expression of the inflammatory cytokine IL-6
